From ChEMBL document CHEMBL1136486, “Novel 3,4-dihydroquinolin-2(1H)-one inhibitors of human glycogen phosphorylase a” (Bioorg Med Chem Lett, 2003) come the findings set out here.

A word on the pIC50: it is the negative decadic logarithm of the IC50, by convention in mol/L. The pEC50 is −log10 of the EC50, conventionally taken in molar units. A lower pEC50 goes with a high EC50.

Experiment [1] deals with T1, Glycogen phosphorylase, liver form (Homo sapiens, UniProt P06737).
T1 sequence (P06737 whole entry): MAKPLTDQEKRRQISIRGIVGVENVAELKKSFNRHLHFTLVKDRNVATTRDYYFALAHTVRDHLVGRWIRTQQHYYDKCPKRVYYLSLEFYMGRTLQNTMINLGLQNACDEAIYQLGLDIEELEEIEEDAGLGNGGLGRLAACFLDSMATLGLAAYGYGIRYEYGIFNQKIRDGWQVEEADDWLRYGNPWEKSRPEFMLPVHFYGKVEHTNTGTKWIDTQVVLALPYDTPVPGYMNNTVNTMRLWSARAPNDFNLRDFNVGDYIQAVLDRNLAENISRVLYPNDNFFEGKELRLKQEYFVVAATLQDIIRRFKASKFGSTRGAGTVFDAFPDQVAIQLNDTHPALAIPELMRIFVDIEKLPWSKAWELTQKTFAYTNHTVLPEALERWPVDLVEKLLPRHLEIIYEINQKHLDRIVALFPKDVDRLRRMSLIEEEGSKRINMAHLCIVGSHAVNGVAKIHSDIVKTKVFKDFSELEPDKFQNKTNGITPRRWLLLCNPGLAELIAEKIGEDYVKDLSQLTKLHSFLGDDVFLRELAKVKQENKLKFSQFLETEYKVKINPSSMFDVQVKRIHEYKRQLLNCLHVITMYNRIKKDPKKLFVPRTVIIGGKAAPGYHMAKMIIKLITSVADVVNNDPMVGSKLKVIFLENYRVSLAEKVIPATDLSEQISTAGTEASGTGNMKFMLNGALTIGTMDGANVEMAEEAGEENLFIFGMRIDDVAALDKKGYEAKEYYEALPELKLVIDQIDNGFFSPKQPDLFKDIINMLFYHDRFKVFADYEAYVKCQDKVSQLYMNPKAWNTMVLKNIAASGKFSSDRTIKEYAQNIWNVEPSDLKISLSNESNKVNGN
The experiment in a line: Inhibitory concentration against recombinant human liver glycogen phosphorylase a (HLGPa).

Experiment [2] concerns the target T2, Glycogen phosphorylase, muscle form (Homo sapiens, UniProt P11217).
T2 sequence (P11217 whole entry): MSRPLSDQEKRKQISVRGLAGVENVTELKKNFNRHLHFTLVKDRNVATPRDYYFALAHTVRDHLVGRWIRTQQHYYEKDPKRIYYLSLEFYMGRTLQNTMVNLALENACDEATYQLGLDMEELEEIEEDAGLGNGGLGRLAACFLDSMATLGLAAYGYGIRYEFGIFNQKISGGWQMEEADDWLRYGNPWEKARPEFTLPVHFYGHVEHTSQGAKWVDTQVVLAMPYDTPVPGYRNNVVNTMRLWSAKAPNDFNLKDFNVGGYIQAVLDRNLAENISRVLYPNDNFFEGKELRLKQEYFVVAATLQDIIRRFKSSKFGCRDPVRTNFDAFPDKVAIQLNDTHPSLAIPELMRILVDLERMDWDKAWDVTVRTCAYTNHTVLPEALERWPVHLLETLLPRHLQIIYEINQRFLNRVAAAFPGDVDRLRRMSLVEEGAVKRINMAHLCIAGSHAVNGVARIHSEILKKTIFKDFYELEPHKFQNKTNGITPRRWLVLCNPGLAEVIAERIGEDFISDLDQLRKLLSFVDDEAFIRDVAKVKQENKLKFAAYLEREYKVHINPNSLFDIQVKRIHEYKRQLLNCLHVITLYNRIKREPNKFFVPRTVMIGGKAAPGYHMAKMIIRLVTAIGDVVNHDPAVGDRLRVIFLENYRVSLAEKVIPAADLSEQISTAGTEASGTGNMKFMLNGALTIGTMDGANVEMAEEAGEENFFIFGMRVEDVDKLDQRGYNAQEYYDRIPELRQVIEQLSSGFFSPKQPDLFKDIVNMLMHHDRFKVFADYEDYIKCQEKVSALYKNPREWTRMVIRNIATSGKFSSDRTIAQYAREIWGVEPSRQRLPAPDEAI
The experiment in a line: Inhibitory concentration against recombinant human muscle glycogen phosphorylase a (HMGPa). Format: single protein.

The species named for another experiment is Rattus norvegicus. The experiment in a line: Inhibition of glucose production in glucagon-stimulated glycogenolysis in primary rat hepatocytes. Format: functional. The following applies: Hepatocyte.

pEC50, pIC50: −log10 of the molar value.

On to `CN1C(=O)C(NC(=O)c2cc3cc(Br)ccc3[nH]2)Cc2ccccc21` (configuration not stated), for which the pIC50 was 7.52 in experiment [1] and 7.14 in experiment [2].

The compound `O=C(N[C@H]1Cc2ccccc2NC1=O)c1cc2cc(Cl)ccc2[nH]1` gave a pEC50 in the experiment filed under Rattus norvegicus of 5.11. The negative logarithm of the IC50 (pIC50) is 7.33 in experiment [1] and 7.41 in experiment [2].

`CN1C(=O)[C@H](NC(=O)c2cc3cc(Cl)ccc3[nH]2)Cc2ccccc21`: the pEC50 in the experiment listed under Rattus norvegicus was 4.88. Further, the results for the pIC50 in experiment [1] and in experiment [2] were 7.21 and 7.24, respectively.

Regarding `COC(=O)c1ccc2[nH]c(C(=O)NC3Cc4ccccc4N(C)C3=O)cc2c1` (configuration not stated), the pIC50 was 5.28 in experiment [1] and 5.57 in experiment [2].

For `CN1C(=O)C(NC(=O)c2cc3ccccc3[nH]2)Cc2ccccc21` (configuration not stated), the pIC50 in experiment [1] was 6.80; in experiment [2], 7.25.

Regarding `COc1ccc2[nH]c(C(=O)NC3Cc4ccccc4N(C)C3=O)cc2c1` (configuration not stated), the pIC50 in experiment [1] and in experiment [2] was 5.77 throughout.

`CN1C(=O)C(NC(=O)c2cc3cccc(N)c3[nH]2)Cc2ccccc21` (configuration not stated): the pIC50 is 5.92 in experiment [1] and 5.17 in experiment [2].

In the experiment listed under Rattus norvegicus, `O=C(N[C@@H]1Cc2ccccc2N(Cc2ccccn2)C1=O)c1cc2cc(Cl)ccc2[nH]1` showed a pEC50 of 4.84. The pIC50 in experiment [1] is 6.92.

In the case of `Cc1ccc2[nH]c(C(=O)NC3Cc4ccccc4N(C)C3=O)cc2c1` (configuration not stated), the pIC50 in experiment [1] was 6.92; in experiment [2], 7.01.

As for `CN1C(=O)C(NC(=O)c2cc3cc(F)ccc3[nH]2)Cc2ccccc21` (configuration not stated), the pIC50 in experiment [1] is 6.92; in experiment [2], 7.05.

Consider `COC(=O)c1cc2[nH]c(C(=O)NC3Cc4ccccc4N(C)C3=O)cc2cc1Cl` (configuration not stated), for which the pIC50 in experiment [1] and in experiment [2] was less than 4.70 in each case.

As to `CN1C(=O)C(NC(=O)c2cc3cc(-c4ccccc4)ccc3[nH]2)Cc2ccccc21` (configuration not stated), the pIC50 in experiment [1] and in experiment [2] was less than 4.70 in each case.

In the case of `CN1C(=O)C(NC(=O)c2cc3cc(C#N)ccc3[nH]2)Cc2ccccc21` (configuration not stated), the pIC50 in experiment [1] is 6.74; in experiment [2], 6.96.

In the experiment filed under Rattus norvegicus, `O=C(N[C@H]1Cc2ccccc2N(Cc2ccccn2)C1=O)c1cc2cc(Cl)ccc2[nH]1` had a pEC50 of 4.94. Also, in experiment [1], the negative logarithm of the IC50 (pIC50) is 6.85.

`CCc1ccc2[nH]c(C(=O)NC3Cc4ccccc4N(C)C3=O)cc2c1` (configuration not stated): the pIC50 is 5.60 in experiment [1] and 6.07 in experiment [2].

With `CN1C(=O)C(NC(=O)c2cc3cccc([N+](=O)[O-])c3[nH]2)Cc2ccccc21` (configuration not stated), the pIC50 in experiment [1] was 6.52; in experiment [2], 6.92.

Turning to `O=C(N[C@@H]1Cc2ccccc2NC1=O)c1cc2cc(Cl)ccc2[nH]1`, the pEC50 in the experiment listed under Rattus norvegicus is 5.74. For the same compound, the negative logarithm of the IC50 (pIC50) is 7.60 in experiment [1] and 7.85 in experiment [2].

`O=C(NC1Cc2ccccc2NC1=O)c1ccc(Cl)c(Cl)c1` (configuration not stated): the pIC50 in experiment [1] was 5.86; in experiment [2] it was 5.64.

In the case of `CN1C(=O)C(NC(=O)c2cc3ccc(-c4ccccc4)cc3[nH]2)Cc2ccccc21` (configuration not stated), the negative-log IC50 (pIC50) in experiment [1] and in experiment [2] was less than 4.70 in each case.

For the compound `CN1C(=O)[C@@H](NC(=O)c2cc3cc(Cl)ccc3[nH]2)Cc2ccccc21`, in the experiment listed under Rattus norvegicus, the pEC50 was 5.08. For the same compound, the pIC50 in experiment [1] and in experiment [2] was 7.24 throughout.

`CN1C(=O)C(NC(=O)c2cc3cc(C(F)(F)F)ccc3[nH]2)Cc2ccccc21` (configuration not stated): the negative-log IC50 (pIC50) is 5.82 in experiment [1] and 6.26 in experiment [2].

Take `CN1C(=O)C(NC(=O)c2cc3cc(Cl)ccc3[nH]2)CCc2ccccc21` (configuration not stated): the values for the pIC50 in experiment [1] and in experiment [2] were 6.52 and 6.98, respectively.

In the case of `COC(=O)c1c(Cl)ccc2[nH]c(C(=O)NC3Cc4ccccc4N(C)C3=O)cc12` (configuration not stated), the pIC50 in experiment [1] and in experiment [2] was less than 4.70 each time.

As to `O=C(NC1CCc2ccccc2NC1=O)c1cc2ccccc2[nH]1` (configuration not stated), the pIC50 was 5.97 in experiment [1] and 5.61 in experiment [2].

Take `CN1C(=O)C(NC(=O)c2cc3cc(Cl)cc(F)c3[nH]2)Cc2ccccc21` (configuration not stated): the pIC50 was 7.08 in experiment [1] and 7.26 in experiment [2].

With `CN1C(=O)C(NC(=O)c2cc3c(Cl)cccc3[nH]2)Cc2ccccc21` (configuration not stated), the negative-log IC50 (pIC50) in experiment [1] is 5.80; in experiment [2] it was 5.68.

Consider `CN1C(=O)C(NC(=O)c2cc3ccc(Cl)cc3[nH]2)Cc2ccccc21` (configuration not stated), for which the pIC50 in experiment [1] is 7.00; in experiment [2] it was 7.16.

`Cc1n[nH]c(CN2C(=O)C(NC(=O)c3cc4cc(Cl)ccc4[nH]3)Cc3ccccc32)n1` (racemic) had a pEC50 in the experiment listed under Rattus norvegicus of 5.92. The pIC50 in experiment [1] was 6.85.

`O=C(NC1Cc2ccccc2N(Cc2cccnc2)C1=O)c1cc2cc(Cl)ccc2[nH]1` (racemic) showed a negative-log EC50 (pEC50) in the experiment listed under Rattus norvegicus of 4.78. Moreover, in experiment [1], the pIC50 was 6.89.

On to `O=C(NC1Cc2ccccc2N(Cc2ccccn2)C1=O)c1cc2cc(Cl)ccc2[nH]1` (racemic), for which the negative logarithm of the EC50 (pEC50) in the experiment filed under Rattus norvegicus is 4.68. Moreover, in experiment [1], the negative-log IC50 (pIC50) is 6.96.

In the case of `O=C(NC1CCc2ccccc2NC1=O)c1ccc(Cl)c(Cl)c1` (racemic), the negative logarithm of the IC50 (pIC50) in experiment [1] is 5.19; in experiment [2], 4.66.

For `O=C(NC1Cc2ccccc2NC1=O)c1cc2cc(Cl)ccc2[nH]1` (racemic), the values for the pIC50 in experiment [1] and in experiment [2] were 7.36 and 7.42, respectively.

On to `CN1C(=O)C(NC(=O)c2cc3cc(Cl)ccc3[nH]2)Cc2ccccc21` (racemic), for which the pIC50 in experiment [1] was 7.60; in experiment [2] it was 7.49.

In the experiment filed under Rattus norvegicus, `O=C(NC1Cc2ccccc2N(Cc2nnc(-c3ncc[nH]3)[nH]2)C1=O)c1cc2cc(Cl)ccc2[nH]1` (racemic) had a pEC50 of 5.43. The pIC50 in experiment [1] is 6.80.
